From patent US7897364B2, “Method for determining inhibitors of neurotrypsin” (University of Zurich, priority 2005, dated 2011)
“Also recorded” adds a separate entry of the source.

Legend:
Urokinase = target: T1, Urokinase (Homo sapiens, UniProt P00749); assay: Specificity test, photometric pNA peptide substrate assay: urokinase; format: biochemical; details: 100 μM compound; substrate Bz-VGR-pNA; 25° C.
T1 construct: purchased medac Gesellschaft für klinische Spezialpräparate mbH Urokinase HS medac (100000 I.E.)
Experimental: (§1) To check the specificity of a compound found to have an inhibitory effect on human neurotrypsin, standard enzyme kinetic measurements with a set of common serine proteases were performed. A standard photometric assay with commercially available proteases and para-nitroanilide-coupled small peptide substrates was used.
(§2) Thrombin from bovine plasma (50 NIH/mg, Merck, D-64271 Darmstadt, Germany). Urokinase HS medac (100000 I.E.; medac Gesellschaft für klinische Spezialpräparate mbH, D-22880 Wedel, Germany).
Bz-VGR-pNA: N-Benzoyl-Val-Gly-Arg-p-nitroanilide, Sigma Aldrich Chemie GmbH.
(§3) The assay was performed in 100 mM Tris-HCl, 150 mM NaCl, 1 mM CaCl2, 5% DMSO, 0.1% PEG 6000, pH 8.0, with the appropriate amount of protease to measure initial velocities and varying amounts of peptide-p-nitroanilide substrates in a range smaller than 0.1 times KM. For inhibition studies 100 μM compound No. 7 were used. Measurements were done at 25° C. in a Cary 50 Spectrophotometer (VARIAN). Initial velocities were determined using various substrate concentrations below 0.1 times KM to be in the range of direct dependency of the initial velocity from the substrate concentration. Initial velocities were plotted against substrate concentrations in the absence or the presence of the candidate inhibitor No. 7. The compound was used in a concentration of 100 μM.

Kallikrein = target: T2, Kallikrein (Sus scrofa, UniProt P00752); assay: Specificity test, photometric pNA peptide substrate assay: kallikrein; format: biochemical, porcine; details: 100 μM compound; substrate Bz-FVR-pNA; 25° C.
T2 construct: Kallikrein from porcine pancreas; purchased Sigma Aldrich Chemie GmbH; host or cells: porcine pancreas
Experimental: as §1
(§4) Kallikrein from porcine pancreas (43 U/mg solid; Sigma Aldrich Chemie GmbH). Plasmin from human plasma (3.2 U/mg solid; Sigma Aldrich Chemie GmbH).
(§5) Bz-FVR-pNA: N-Benzoyl-Phe-Val-Arg-p-nitroanilide HCl, Bachem AG, CH-4416 Bubendorf, Switzerland.
as §3

Factor Xa = target: T3, Factor Xa (Bos taurus, UniProt P00743); assay: Specificity test, photometric pNA peptide substrate assay: factor Xa; format: biochemical, bovine; details: 100 μM compound; substrate Bz-IEGR-pNA; 25° C.
T3 construct: purchased Sigma Aldrich Chemie GmbH; host or cells: bovine plasma
Experimental: as §1
Factor Xa activated from bovine plasma (6.1 mg protein/ml; Sigma Aldrich Chemie GmbH, D-89552 Steinheim, Germany).
Bz-IEGR-pNA: S-2222, Chromogenix-Instrumentation Laboratory SpA, 1-20128 Milano, Italy.
as §3

mouse neurotrypsin = target: T4, mouse neurotrypsin (Mus musculus, UniProt O08762); assay: Dose dependence of neurotrypsin inhibition (agrin-EGFP cleavage, Western blot); format: biochemical; details: 0 to 200 μM compound; agrin-EGFP substrate; Western blot quantification; read-out: IC50 value (half-maximum amount of product)
T4 construct: made in house; host or cells: mouse myeloma cell line J558L
T4 sequence (O08762 22-761): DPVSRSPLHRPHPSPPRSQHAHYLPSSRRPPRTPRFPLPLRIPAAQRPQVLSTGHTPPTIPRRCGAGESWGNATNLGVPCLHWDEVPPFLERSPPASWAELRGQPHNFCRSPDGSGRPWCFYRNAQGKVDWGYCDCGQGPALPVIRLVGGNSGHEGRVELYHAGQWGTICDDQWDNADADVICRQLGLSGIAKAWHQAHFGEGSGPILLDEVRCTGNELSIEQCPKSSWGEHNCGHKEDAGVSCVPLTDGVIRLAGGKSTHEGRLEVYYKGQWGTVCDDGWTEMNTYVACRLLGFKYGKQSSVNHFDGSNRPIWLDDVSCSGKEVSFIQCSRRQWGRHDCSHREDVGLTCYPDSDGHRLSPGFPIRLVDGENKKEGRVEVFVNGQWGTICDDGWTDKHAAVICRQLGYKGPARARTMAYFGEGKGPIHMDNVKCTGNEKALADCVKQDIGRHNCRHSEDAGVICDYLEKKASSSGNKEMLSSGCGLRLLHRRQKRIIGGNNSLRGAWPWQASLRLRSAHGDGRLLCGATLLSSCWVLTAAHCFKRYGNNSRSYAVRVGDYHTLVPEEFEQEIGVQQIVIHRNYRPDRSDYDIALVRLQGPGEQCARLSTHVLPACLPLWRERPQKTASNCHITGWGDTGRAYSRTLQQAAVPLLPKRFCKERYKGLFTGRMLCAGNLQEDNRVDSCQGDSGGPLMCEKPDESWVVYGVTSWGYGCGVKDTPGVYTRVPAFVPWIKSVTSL
Source text: (A) Western blot detection of the 150 kDa C-terminal fragment of agrin (Ag-CF) generated by neurotrypsin-mediated cleavage of agrin-EGFP in dependence of the concentration of compound No. 7, N^1-amidino-N^4-(3,5-dibromosalicylidene)-sulfanilamide.
(B) Graphic plot of the intensity data from (A) against the inhibitor concentration with I=100% intensity for agrin+mouse neurotrypsin without addition of inhibitor compound No. 7.
(§6) The inhibitory activity of small-molecule compounds on the catalytic activity of neurotrypsin is measured in 150 mM NaCl, 5 mM CaCl2, 5% DMSO, 0.1% PEG 6000, and 20 mM MOPS, pH 7.5 in 0.5 ml low protein-binding Eppendorf tubes in a total volume of 15 μl. Human or murine neurotrypsin or catalytically active truncated versions of neurotrypsin are used at a concentration that results in cleavage of 80% of the substrate within 3 hours. As substrate, engineered soluble agrin, for example 0.1-1 μM agrin-EGFP (Example 20) or 0.1-3 μM engineered agrin-C45 (Example 21), is used. Inhibitor solution in 10 mM MOPS, pH 7.5, containing 5% DMSO is added to a final concentration of either 25 or 150 μM. […]
Different concentrations of compound No. 7 from 0 to 200 μM were tested with the assay described in Example 27 with engineered agrin-EGFP as substrate. The generated product was detected by Western blot (FIG. 17 A) and quantified (FIG. 17 B).

Trypsin = target: T5, Trypsin (Sus scrofa, UniProt P00761); assay: Specificity test, photometric pNA peptide substrate assay: trypsin; format: biochemical, hog; details: 100 μM compound; substrate Bz-FVR-pNA; 25° C.
T5 construct: Trypsin from hog pancreas; purchased Fluka Chemie AG; host or cells: hog pancreas
Experimental: as §1
Trypsin from hog pancreas (16099 U/mg; Fluka Chemie AG, CH-9471 Buchs, Switzerland).
as §5, §3

Plasmin = target: T6, Plasmin (Homo sapiens, UniProt P00747); assay: Specificity test, photometric pNA peptide substrate assay: plasmin; format: biochemical; details: 100 μM compound; substrate N-Tosyl-GPK-pNA; 25° C.
T6 construct: Plasmin from human plasma; purchased Sigma Aldrich Chemie GmbH; host or cells: human plasma
Experimental: as §1, §4
N-Tosyl-GPK-pNA: N-Tosyl-Gly-Pro-Lys-p-nitroanilide, #90178, Fluka Chemie AG.
as §3

tPA = target: T7, tPA (Homo sapiens, UniProt P00750); assay: Specificity test, photometric pNA peptide substrate assay: tPA; format: biochemical; details: 100 μM compound; substrate IPR-pNA; 25° C.
T7 construct: purchased Dr. Karl Thomae GmbH Actilyse (10 mg)
Experimental: as §1
tPA: Actilyse (10 mg; Dr. Karl Thomae GmbH, Birkendorfer Straβe 65, D-88397 Biberach, Germany).
IPR-pNA: S-2288, Chromogenix-Instrumentation Laboratory SpA.
as §3

neurotrypsin = target: T8, neurotrypsin (Homo sapiens, UniProt P56730); assay: Western blot-based screening assay for neurotrypsin inhibitors (agrin-EGFP cleavage); format: biochemical; details: inhibitor 25 or 150 μM; agrin-EGFP substrate; 3 h at 37° C.; intensity of 150-kDa fragment on Western blot
T8 construct: Human or murine neurotrypsin or catalytically active truncated versions of neurotrypsin are used; made in house; host or cells: mouse myeloma cell line J558L
T8 sequence (P56730 21-875): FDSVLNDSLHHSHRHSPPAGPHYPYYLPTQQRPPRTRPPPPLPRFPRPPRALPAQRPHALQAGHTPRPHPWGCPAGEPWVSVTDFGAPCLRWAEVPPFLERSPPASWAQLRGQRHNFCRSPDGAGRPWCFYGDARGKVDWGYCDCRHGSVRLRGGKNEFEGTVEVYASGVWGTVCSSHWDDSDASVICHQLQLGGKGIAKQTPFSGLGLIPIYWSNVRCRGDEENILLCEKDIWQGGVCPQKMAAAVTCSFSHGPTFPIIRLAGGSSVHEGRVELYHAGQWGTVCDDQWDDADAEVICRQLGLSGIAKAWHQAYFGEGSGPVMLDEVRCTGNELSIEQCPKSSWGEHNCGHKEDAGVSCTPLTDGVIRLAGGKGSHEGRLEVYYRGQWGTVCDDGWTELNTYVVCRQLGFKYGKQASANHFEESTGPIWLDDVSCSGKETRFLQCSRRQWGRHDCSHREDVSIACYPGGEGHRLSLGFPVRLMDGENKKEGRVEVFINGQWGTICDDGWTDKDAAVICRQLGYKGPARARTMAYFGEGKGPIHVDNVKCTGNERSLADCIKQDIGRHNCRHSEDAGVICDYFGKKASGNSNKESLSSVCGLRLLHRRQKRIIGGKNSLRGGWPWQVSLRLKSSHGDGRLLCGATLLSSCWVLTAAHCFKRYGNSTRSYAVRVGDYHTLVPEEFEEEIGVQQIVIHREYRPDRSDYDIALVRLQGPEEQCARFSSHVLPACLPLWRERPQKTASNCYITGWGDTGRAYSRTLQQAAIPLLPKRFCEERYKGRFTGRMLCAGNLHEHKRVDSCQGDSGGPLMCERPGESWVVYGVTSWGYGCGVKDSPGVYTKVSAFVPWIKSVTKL
Experimental: Negative control (−): only agrin-EGFP without neurotrypsin. Positive control (+): agrin-EGFP with addition of neurotrypsin.
Compounds were dissolved in DMSO to a final concentration of 10 mM. For the assay the solution in DMSO was diluted with 10 mM MOPS, pH 7.5, to a concentration of 500 μM and 5% DMSO (1:20 dilution). Insoluble and precipitated material was removed by centrifugation (15 min, 16 krcf, RT). The cleared supernatant was used for the inhibition assay, as described in Example 27.
as §6, with “used.” for “used. Inhibitor solution in 10 mM MOPS, pH 7.5, containing 5% DMSO is added to a final concentration of either 25 or 150 μM.”
One way of substrate visualization is Western blotting. […] The intensity of the 150-kDa fragments of agrin-EGFP generated by neurotrypsin-mediated cleavage in the presence of the putative inhibitory compounds (FIG. 16 A) are measured and the relative intensities are plotted (FIG. 16 B).

Thrombin = target: T9, Thrombin (Bos taurus, UniProt P00735); assay: Specificity test, photometric pNA peptide substrate assay: thrombin; format: biochemical, bovine; details: 100 μM compound; substrate Bz-FVR-pNA; 25° C.
T9 construct: Thrombin from bovine plasma; purchased Merck; host or cells: bovine plasma
Experimental: as §1, §2, §5, §3

T3 sequence (P00743 234-492 limits assumed): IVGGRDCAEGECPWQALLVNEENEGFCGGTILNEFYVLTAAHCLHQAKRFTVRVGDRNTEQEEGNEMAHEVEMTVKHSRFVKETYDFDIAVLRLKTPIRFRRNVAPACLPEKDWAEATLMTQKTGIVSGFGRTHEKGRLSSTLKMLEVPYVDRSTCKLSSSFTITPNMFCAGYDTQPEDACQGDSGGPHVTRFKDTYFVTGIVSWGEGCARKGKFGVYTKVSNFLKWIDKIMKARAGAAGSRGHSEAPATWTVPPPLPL
T3 sequence (P00743 41-180 limits assumed): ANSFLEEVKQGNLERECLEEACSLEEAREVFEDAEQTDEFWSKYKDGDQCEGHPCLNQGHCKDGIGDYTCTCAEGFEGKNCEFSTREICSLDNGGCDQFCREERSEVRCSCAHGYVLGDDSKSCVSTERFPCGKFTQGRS
T2 sequence (P00752 8-246): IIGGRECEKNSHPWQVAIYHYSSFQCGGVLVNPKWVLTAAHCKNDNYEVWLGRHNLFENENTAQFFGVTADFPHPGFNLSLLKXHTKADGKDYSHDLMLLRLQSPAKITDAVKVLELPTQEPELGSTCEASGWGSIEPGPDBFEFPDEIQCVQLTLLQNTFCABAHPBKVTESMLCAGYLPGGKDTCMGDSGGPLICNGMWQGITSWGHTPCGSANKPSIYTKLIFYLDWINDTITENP
T7 sequence (P00750 36-562): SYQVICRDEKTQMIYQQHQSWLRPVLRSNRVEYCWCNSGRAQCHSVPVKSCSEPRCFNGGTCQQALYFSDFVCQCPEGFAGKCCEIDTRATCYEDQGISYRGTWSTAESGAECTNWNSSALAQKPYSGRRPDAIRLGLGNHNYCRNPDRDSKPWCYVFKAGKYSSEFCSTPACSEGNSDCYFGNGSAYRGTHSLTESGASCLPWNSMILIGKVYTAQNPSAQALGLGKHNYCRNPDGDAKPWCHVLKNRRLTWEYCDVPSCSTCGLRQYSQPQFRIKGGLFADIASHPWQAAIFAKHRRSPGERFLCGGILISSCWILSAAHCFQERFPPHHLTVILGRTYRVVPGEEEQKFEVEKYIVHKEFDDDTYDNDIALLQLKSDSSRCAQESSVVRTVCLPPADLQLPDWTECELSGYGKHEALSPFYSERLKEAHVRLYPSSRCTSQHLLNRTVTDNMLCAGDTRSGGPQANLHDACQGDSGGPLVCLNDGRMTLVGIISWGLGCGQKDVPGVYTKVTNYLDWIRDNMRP
T6 sequence (P00747 581-810 limits assumed): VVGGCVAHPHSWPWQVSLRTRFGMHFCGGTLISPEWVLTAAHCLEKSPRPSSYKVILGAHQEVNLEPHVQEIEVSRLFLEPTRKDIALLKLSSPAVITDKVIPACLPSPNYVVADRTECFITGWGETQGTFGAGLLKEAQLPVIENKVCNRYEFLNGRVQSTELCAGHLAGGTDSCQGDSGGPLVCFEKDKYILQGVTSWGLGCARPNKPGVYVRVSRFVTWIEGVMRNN
T6 sequence (P00747 97-580 limits assumed): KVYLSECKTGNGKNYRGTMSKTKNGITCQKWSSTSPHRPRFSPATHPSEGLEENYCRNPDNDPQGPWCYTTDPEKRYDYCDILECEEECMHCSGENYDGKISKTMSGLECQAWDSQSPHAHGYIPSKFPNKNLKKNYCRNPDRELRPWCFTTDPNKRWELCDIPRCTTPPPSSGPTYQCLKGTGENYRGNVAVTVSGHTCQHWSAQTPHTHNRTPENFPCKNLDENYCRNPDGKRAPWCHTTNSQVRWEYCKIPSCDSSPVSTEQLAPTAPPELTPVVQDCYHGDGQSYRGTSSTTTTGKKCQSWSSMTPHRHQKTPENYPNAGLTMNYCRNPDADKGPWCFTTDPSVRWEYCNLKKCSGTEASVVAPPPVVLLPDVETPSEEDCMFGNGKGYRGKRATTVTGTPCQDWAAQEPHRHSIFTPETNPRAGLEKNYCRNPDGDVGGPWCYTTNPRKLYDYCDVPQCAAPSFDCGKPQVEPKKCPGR
T5 sequence (P00761 9-231): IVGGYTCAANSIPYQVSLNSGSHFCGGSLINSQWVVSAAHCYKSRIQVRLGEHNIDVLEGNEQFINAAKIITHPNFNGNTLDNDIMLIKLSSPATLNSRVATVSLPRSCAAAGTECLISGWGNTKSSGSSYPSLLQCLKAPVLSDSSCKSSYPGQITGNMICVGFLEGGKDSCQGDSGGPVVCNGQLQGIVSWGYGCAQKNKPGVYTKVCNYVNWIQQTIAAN

N=C(N)NS(=O)(=O)c1ccc(N=Cc2cc(Br)cc(Br)c2O)cc1 [Compound No. 7, N^1-amidino-N^4-(3,5-dibromosalicylidene)-sulfanilamide]
inhibition of urokinase (initial velocities) (Urokinase): None of the investigated enzymes showed a significant inhibition; also recorded: No inhibition | inhibition of kallikrein (initial velocities) (Kallikrein): None of the investigated enzymes showed a significant inhibition; also recorded: No inhibition | inhibition of factor Xa (initial velocities) (Factor Xa): None of the investigated enzymes showed a significant inhibition; also recorded: No inhibition | IC50 (mouse neurotrypsin): ~60 µM | inhibition of trypsin (initial velocities) (Trypsin): None of the investigated enzymes showed a significant inhibition; also recorded: No inhibition | inhibition of plasmin (initial velocities) (Plasmin): None of the investigated enzymes showed a significant inhibition; also recorded: No inhibition | inhibition of tPA (initial velocities) (tPA): None of the investigated enzymes showed a significant inhibition; also recorded: No inhibition | inhibitory activity on neurotrypsin (neurotrypsin): significant inhibitory activity | inhibition of thrombin (initial velocities) (Thrombin): None of the investigated enzymes showed a significant inhibition; also recorded: No inhibition
